Measured values from US8435975B2, “Steroidal esters of 17-oximino-5-androsten-3beta-ol” (Council of Scientific & Industrial Research, priority 2007, dated 2013).
Several values for one entry are separate records, joined by “and”; a condition that tells them apart may be missing. Identical values can stand only once.

Key:
[1] = system: human prostate cancer cell line (DU-145); test: Growth inhibitory activity assay (MTT assay), in vitro antiproliferative activity; format: cell-based; settings: DU-145 cells; for % growth inhibition (mean ± SEM) / inhibition at 5 µg/mL: 5.0 μg/ml; for % growth inhibition (mean ± SEM) / inhibition at 0.01 µg/mL / inhibition at 0.5 µg/mL / inhibition at 1 µg/mL / inhibition at 2 µg/mL / inhibition at 5 µg/mL: 48 hr; for antiproliferative activity (in words): 0.01-5.0 μg/ml; for inhibition at 0.01 µg/mL / inhibition at 0.5 µg/mL / inhibition at 1 µg/mL / inhibition at 2 µg/mL / inhibition at 5 µg/mL: Homo sapiens, DU-145, 48 h, read-out: % growth inhibition (mean ± SEM); for inhibition at 0.01 µg/mL: 0.01 μg/ml; for inhibition at 0.5 µg/mL: 0.5 μg/ml; for inhibition at 1 µg/mL: 1.0 μg/ml; for inhibition at 2 µg/mL: 2.0 μg/ml
Method: 1) In Vitro Antiproliferative Activity Against Human Prostate Cancer Cell Line (DU-145)
Compounds were screened for antiproliferative activity on human prostate cell line DU-145 at National Centre of Human Genome Studies and Research. Panjab University, Chandigarh. All the compounds (10 to 16), Finasteride and starting material (9) were tested at five different concentrations: 0.01, 0.5, 1.0, 2.0, and 5.0 μg/ml. Finasteride was the positive control in this growth inhibitory assay.
Growth Inhibitory Activity Assay (MTT Assay)
We investigated the effect of newly synthesized compounds on cell growth inhibition using MTT assay. This assay quantifies the viable cells by observing the reduction of tetrazolium salt, MTT to formazan crystals by the live cells. Based on the absorbance of the cell sample after the test is carried out, cell viable can be measured [Loveland, B. E.; Jones, T. G.; Mackay. I. R.; Vaillant, F.; Wang, Z. X.; Hertzog, P. J. Biochem. International 1992, 27, 501 and Wright, S. A.; Thomas, L. N.; Douglas, R. C.; Lazier, C. B.; Rittmaster, R. S. J. Clin. Invest. 1996, 98, 2558]. Cells were cultured at a density of 5×10^3 cells/well in 96 well plates at 37° C. in 5.0% CO2 atmosphere and were allowed to attach for 24 hr. The cells were treated in triplicate with graded concentration of sample and reference drug Finasteride at 37° C. for 48 hr. A 20 μl aliquot of MTT solution was added directly to all the appropriate wells. Following 4 hr of incubation at […], the media was removed and formazan crystals, which results from the reduction of MTT by active cell were dissolved in 100 μl DMSO and vigorously mixed to dissolve the reacted dye. The absorbance of each well was read on Elisa plate reader (Merck) at 570 nm. The spectrometer was calibrated to zero absorbance using culture medium without cells. The relative cell viability (%) related to control well containing cell culture medium without drug was calculated by [A]test/[A]control×100. % Growth Inhibition=[OD]control−[OD]test/[OD]control×100 Results: […]

5α-reductase = test: In vivo effect on serum testosterone level (5α-reductase inhibitory activity), ELISA; set-up: species or system Sprague Dawley rats; settings: for Serum levels of Testosterone, T: Sprague Dawley male rats, intraperitoneal, Finasteride 40 mg/kg and equimolar dose of compounds, 6 hr after treatment
Method: Animals (Sprague Dawley male rats weighing 150-200 g) were divided into 3 groups; vehicle (control), Finasteride (standard), treated (test sample) and each group consist of 5 animals. Sprague Dawley rats were treated intraperitoneally with Finasteride 40 mg/kg and equimolar dose of compounds. After 6 hr of treatment, blood was withdrawn by cardiac puncture under diethyl ether anesthesia and serum was separated from cells by centrifugation. Plasma testosterone values were obtained by ELISA plate reader at […] and are given in ng/ml.
The aliquots of 50 μl of each of standards, control and unknown (serum samples) were added to Testosterone Antibody coated wells. 100 μl of HRP-testosterone conjugate was added to all the wells and the plates were shaken gently on a shaker for proper mixing of the reagents. Following 4 hr of incubation at 37° C., the incubation mixture was removed. The wells were washed with phosphate buffer for 5-6 times (200 μl each time), followed by addition of 100 μl of TMB/H2O2 substrate in each of the wells. The plates were further incubated at 37° C. for 20 minutes. At the end of incubation reaction was stopped by using 100 μl of 0.5 M H2SO4 as stopping reagent. The absorbance of each well was read on Elisa plate reader at 450 nm [Rassaie, M. J.; Kumari, G. L.; Pandey, P. K.; Gupta, N.; Kochupillai, N.; Grover, P. K. Steroids 1992, 57, 288 and Hosoda, H.; Yoshida, H.; Sakai, Y.; Miyairi, S.; Nambara, T. Chem. Pharm. Bull. 1980, 28, 3035]
Intact male rats (Sprague Dawley, 200-250 g) were used in the designed study in which various compounds were compared for in vivo 5α-reductase inhibitory potency, as judged by the their ability to attenuate the conversion of testosterone into dihydrotestosterone (DHT). […] The procedure measure T equally well, and method met all the requirement of precision, accuracy, sensitivity and selectivity.

[2] = system: mouse macrophages (Balb C); test: In vitro cytotoxicity using mouse macrophages (acute toxicity), MTT assay; format: cell-based; settings: both, Balb C, mouse, 48 h
Method: (§1) All steroids were dissolved in ethanol and diluted to appropriate concentration: 0.01, 0.5, 1.0, 2.0, 5.0 μg/ml from the two stock solution of 1 mg/ml and […]. Stocks were maintained at room temperature.
(§2) […] Approximately 1 ml of Phosphate buffer saline preincubated at 37° C. was injected into cavity. The abdomen was lavaged for 10 min and fluid along with macrophages were taken out using a syringe into polypropylene tube. The phosphate solution was spun at 800 rpm for 5-10 min and cells were resuspended in 1 ml RPMI media. Cell number was counted using haemocytometer.
(§3) Cells (mouse macrophages) were plated at a density of 5×10^3 cells/well in 96 plate at 37° C. in 5% CO2. Cells were exposed in graded concentration of compounds at designated various concentration. Each concentration was tested in triplicate wells. After 48 hr fresh MTT 20 μl (1 mg/ml) was added directly to all the wells and culture was incubated for 4 hr at 37° C. During this incubation, MTT was converted into a water insoluble formazan complex by metabolic activity of viable cells. Formazan crystal were taken and dissolved in 100 μl of DMSO, which give light pink colour. The absorbance of each well was read on Elisa plate reader (Merck) at 570 nm. The spectrometer was calibrated to zero absorbance using culture medium without cells. The relative cell viability (%) related to control well containing cell culture medium without drug was calculated by [A]test/[A]control×100. % Cell Viability=[A]test/[A]control×100 [A]test=absorbance test sample [A]control=absorbance control sample Results: LC50: Concentration of the Compound in μg/ml (μm), Lethal to 50% Population of Cells.
(§4) The assay quantifies the viable cells, after […] incubation of cells with five different concentrations.

[3] = as above; format: cell-based; settings: both sexes, Balb C; mouse macrophages, from linear equation of MTT data; read-out: LC50 (concentration lethal to 50% population of cells)
Method: as §1, §2, §3, §4

C[C@]12CC[C@H](OC(=O)c3ccc(Cl)cc3)CC1=CC[C@@H]1[C@@H]2CC[C@]2(C)C(=NO)CC[C@@H]12 [Compound 10, 17-oximino-5-androsten-3β-yl 4-chlorobenzoate]
% growth inhibition (mean ± SEM) [1]: 84.47 ± 0.74% | antiproliferative activity (in words) [1]: relatively less activity than above compounds but still better than Finasteride | inhibition at 0.01 µg/mL [1]: 43.4 ± 0.77% | inhibition at 0.5 µg/mL [1]: 57.1 ± 5.96% | inhibition at 1 µg/mL [1]: 64.9 ± 7.4% | inhibition at 2 µg/mL [1]: 69.2 ± 7.48% | inhibition at 5 µg/mL [1]: 81 to 84% | Serum levels of Testosterone, T (5α-reductase): 0.95 ng/mL | effect on serum testosterone level (in words) (5α-reductase; rats, 6 hr post dose, compared to control): loss of activity | % viable Cells (mean ± SEM) ([2]; 0.01 μg/ml): 88.22 ± 0.41% | % viable Cells (mean ± SEM) ([2]; 0.5 μg/ml): 87.21 ± 0.46% | % viable Cells (mean ± SEM) ([2]; 1 μg/ml): 77.40 ± 0.43% | % viable Cells (mean ± SEM) ([2]; 2 μg/ml): 77.14 ± 0.21% | % viable Cells (mean ± SEM) ([2]; 5 μg/ml): 73.149 ± 0.13% | CC50 at 48 h [3]: 24 µM

C[C@]12CC[C@H](OC(=O)c3ccc(O)cc3)CC1=CC[C@@H]1[C@@H]2CC[C@]2(C)C(=NO)CC[C@@H]12 [Compound 15, 17-oximino-5-androsten-3β-yl 4-hydroxybenzoate]
% growth inhibition (mean ± SEM) [1]: 91.54 ± 0.19% | antiproliferative activity (in words) [1]: more potent than the reference Finasteride | inhibition at 0.01 µg/mL [1]: 62.6 ± 2.46% | inhibition at 0.5 µg/mL [1]: 76.9 ± 5.94% | inhibition at 1 µg/mL [1]: 83.08 ± 0.75% | inhibition at 2 µg/mL [1]: 91.4 ± 1.5% | inhibition at 5 µg/mL [1]: > 90% | Serum levels of Testosterone, T (5α-reductase): 0.73 ng/mL | % viable Cells (mean ± SEM) ([2]; 0.01 μg/ml): 89.80 ± 2.95% | % viable Cells (mean ± SEM) ([2]; 0.5 μg/ml): 81.02 ± 2.83% | % viable Cells (mean ± SEM) ([2]; 1 μg/ml): 63.99 ± 0.91% | % viable Cells (mean ± SEM) ([2]; 2 μg/ml): 56.88 ± 0.39% | % viable Cells (mean ± SEM) ([2]; 5 μg/ml): 55.36 ± 0.19% | CC50 at 48 h [3]: 22 µM

CC(C)(C)NC(=O)[C@H]1CC[C@H]2[C@@H]3CC[C@H]4NC(=O)C=C[C@]4(C)[C@H]3CC[C@]12C [Finasteride, reference compound]
% growth inhibition (mean ± SEM) [1]: 78.51 ± 4.63% | inhibition at 0.01 µg/mL [1]: 5 ± 1.58% | inhibition at 0.5 µg/mL [1]: 8.83 ± 8.4% | inhibition at 1 µg/mL [1]: 16.5 ± 2.49% | inhibition at 2 µg/mL [1]: 36 ± 8.95% | inhibition at 5 µg/mL [1]: 78% | Serum levels of Testosterone, T (5α-reductase): 1.26 ± 0.02 ng/mL and 1.26 ng/mL | % viable Cells (mean ± SEM) ([2]; 0.01 μg/ml): 96.45 ± 0.36% | % viable Cells (mean ± SEM) ([2]; 0.5 μg/ml): 94.20 ± 1.72% | % viable Cells (mean ± SEM) ([2]; 1 μg/ml): 93.32 ± 0.59% | % viable Cells (mean ± SEM) ([2]; 2 μg/ml): 81.18 ± 0.20% | % viable Cells (mean ± SEM) ([2]; 5 μg/ml): 79.14 ± 0.312% | CC50 at 48 h [3]: 28.2 µM
